The text below walks through data of patent US10167276B2, “Compounds and methods for inhibiting JAK” (Dizal (Jiangsu) Pharmaceutical Co., Ltd., priority 2015, dated 2019).

For test [1], the system named is STAT3 phosphorylation in NCI-H1975 cells. The experiment in a line: Cellular pSTAT3 assay in NCI-H1975 cells. The conditions noted are these: Homo sapiens, 2 hours with compound. It counts as cell-based. As for the experimental part:
NCI-H1975 cells were plated onto Costar #3701 96 or 384 well tissue-culture treated plates at 5,000 cells/well in 30 uL medium (RPMI, 10% FBS, supplemented with L-glutamine) and incubated overnight at 37° C. in 5% CO2. Phospho STAT3 signal was quantitated utilizing Cell Signaling Technology #7146B Pathscan […] STAT3 antibody pair kit, following manufacturer's instructions.
Cells were dosed with compound and incubated at 37° C. in 5% CO2 for 2 hours, after which medium and compound were aspirated and cells lysed with 35 uL cold 1×Cell Signaling Lysis buffer and chilled at 4° C. for 1-2 hours. Lysate was incubated on STAT3 capture plates at 4° C. overnight, washed 3× with Tris-Buffered Saline with 0.05% Tween® 20 (TBST), then […] STAT3 detection antibody was applied for 2 hours. Following washing with TBST (3×), HRP-secondary antibody was applied for 2 hours. After additional washing, signal was detected using TMB and Stop solution and read at 450 nm using Tecan Infinite M100.

Another test addresses JAK3 (Homo sapiens (Human), UniProt P52333). The experiment in a line: Enzyme inhibition studies, recombinant JAK3 (Caliper peptide phosphorylation). The class given is biochemical. The conditions noted are these: recombinant JAK3 (amino acids 781-1124); assayed at ATP Km (3 μM) and 5 mM ATP, table does not say which. The procedure:
(§1) Enzyme inhibition studies were performed using recombinant JAK1 (amino acids 866-1154, Life Technologies, #PV4774, Carlsbad, Calif.), JAK2 (amino acids 831-1132), or JAK3 (amino acids 781-1124) under buffer conditions of 50 mM HEPES pH 7.3, 1 mM DTT, 0.01% Tween® 20, 50 μg/mL BSA, and 10 mM MgCl2. JAK enzyme was expressed as an N-terminal GST fusion in insect cells and purified by glutathione-affinity and size-exclusion chromatographies. […] Phosphorylated and unphosphorylated peptides were separated and quantified by a Caliper LC3000 system (Caliper Life Sciences, MA) for calculating percent inhibition.

A further test deals with JAK1 (Homo sapiens (Human), UniProt P23458). The experiment in a line: Enzyme inhibition studies, recombinant JAK1 (Caliper peptide phosphorylation). The conditions noted are these: recombinant JAK1 (amino acids 866-1154); assayed at ATP Km (55 μM) and 5 mM ATP, table does not say which. The class given is biochemical. As for the experimental part:
as §1

A further test has as its target JAK2 (Homo sapiens (Human), UniProt O60674). The experiment in a line: Enzyme inhibition studies, recombinant JAK2 (Caliper peptide phosphorylation). The conditions noted are these: recombinant JAK2 (amino acids 831-1132); assayed at ATP Km (15 μM) and 5 mM ATP, table does not say which. It counts as biochemical. As for the experimental part: as §1

Each structure is given as a SMILES string. Bounds are passed on as bounds.

Sequence of JAK3 (P52333 781-1124): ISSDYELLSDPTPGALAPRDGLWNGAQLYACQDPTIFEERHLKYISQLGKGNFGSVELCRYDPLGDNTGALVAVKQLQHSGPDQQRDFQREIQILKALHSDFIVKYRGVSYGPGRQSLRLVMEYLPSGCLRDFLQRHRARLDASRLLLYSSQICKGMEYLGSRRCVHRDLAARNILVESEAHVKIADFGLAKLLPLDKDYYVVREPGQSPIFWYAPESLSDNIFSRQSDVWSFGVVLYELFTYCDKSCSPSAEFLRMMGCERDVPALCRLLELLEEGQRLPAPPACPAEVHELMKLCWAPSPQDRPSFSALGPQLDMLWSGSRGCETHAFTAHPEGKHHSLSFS
Sequence of JAK1 (P23458 866-1154): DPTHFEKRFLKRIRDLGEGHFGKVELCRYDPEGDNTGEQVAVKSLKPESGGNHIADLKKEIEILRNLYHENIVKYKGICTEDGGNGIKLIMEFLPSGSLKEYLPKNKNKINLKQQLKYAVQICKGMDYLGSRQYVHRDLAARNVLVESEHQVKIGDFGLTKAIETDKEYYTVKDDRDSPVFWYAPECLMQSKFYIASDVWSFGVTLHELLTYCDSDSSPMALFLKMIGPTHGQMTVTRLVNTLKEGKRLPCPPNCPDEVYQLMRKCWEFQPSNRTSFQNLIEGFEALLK
Sequence of JAK2 (O60674 831-1132): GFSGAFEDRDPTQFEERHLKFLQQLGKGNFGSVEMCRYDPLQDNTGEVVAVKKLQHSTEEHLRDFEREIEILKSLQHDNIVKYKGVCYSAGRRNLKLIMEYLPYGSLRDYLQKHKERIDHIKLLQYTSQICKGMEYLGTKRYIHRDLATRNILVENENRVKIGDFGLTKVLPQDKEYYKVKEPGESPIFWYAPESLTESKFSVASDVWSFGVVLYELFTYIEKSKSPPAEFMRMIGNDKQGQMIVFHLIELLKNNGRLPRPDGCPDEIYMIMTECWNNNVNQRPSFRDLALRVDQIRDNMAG

In general, IC50 refers to the concentration needed to halve the response being measured. As for `CC[C@H](C(=O)Nc1cccc2c(-c3nc(Nc4cn(C)nc4C)ncc3F)c[nH]c12)N1CCN(C)CC1` [Example 49, (2R)-N-(3-{2-[(1,3-dimethyl-1H-pyrazol-4-yl)amino]-5-fluoropyrimidin-4-yl}-1H-indol-7-yl)-2-(4-methylpiperazin-1-yl)butanamide], the IC50 in test [1] was determined as 75.1 nM.
`CC[C@@H](C(=O)Nc1cccc2c(-c3nc(Nc4cn(C)nc4C)ncc3F)c[nH]c12)N1CCN(C)CC1` [Example 50, (2S)-N-{3-[2-[(1,3-dimethyl-1H-pyrazol-4-yl)amino]-5-fluoropyrimidin-4-yl}-1H-indol-7-yl)-2-(4-methylpiperazin-1-yl)butanamide]: the IC50 in test [1] is 999 nM.
Take `CC[C@H](C(=O)Nc1cccc2c(-c3nc(Nc4cn(C)nc4OC)ncc3F)c[nH]c12)N1CCN(C)CC1` [Example 51, (2R)-N-(3-{5-fluoro-2-[(3-methoxy-1-methyl-1H-pyrazol-4-yl)amino]pyrimidin-4-yl}-1H-indol-7-yl)-2-(4-methylpiperazin-1-yl)butanamide]: the IC50 in test [1] came to 111 nM.
As to `CC[C@@H](C(=O)Nc1cccc2c(-c3nc(Nc4cn(C)nc4OC)ncc3F)c[nH]c12)N1CCN(C)CC1` [Example 52, (2S)-N-(3-{5-fluoro-2-[(3-methoxy-1-methyl-1H-pyrazol-4-yl)amino]pyrimidin-4-yl}-1H-indol-7-yl)-2-(4-methylpiperaizn-1-yl)butanamide], the IC50 in test [1] came out at 548 nM.
As for `COC[C@H](C(=O)Nc1cccc2c(-c3nc(Nc4cn(C)nc4C)ncc3F)c[nH]c12)N1CCN(C)CC1` [Example 53, (2R)-N-(3-{2-[(1,3-dimethyl-1H-pyrazol-4-yl)amino]-5-fluoropyrimidin-4-yl}-1H-indol-7-yl)-3-methoxy-2-(4-methylpiperazin-1-yl)propanamide], the IC50 in test [1] worked out at 56.6 nM.
Take `COC[C@@H](C(=O)Nc1cccc2c(-c3nc(Nc4cn(C)nc4C)ncc3F)c[nH]c12)N1CCN(C)CC1` [Example 54, (2S)-N-{3-[2-[(1,3-dimethyl-1H-pyrazol-4-yl)amino]-5-fluoropyrimidin-4-yl}-1H-indol-7-yl)-3-methoxy-2-(4-methylpiperazin-1-yl)propanamide]: the IC50 in test [1] was greater than 3000 nM.
For `CCc1nn(C)cc1Nc1ncc(C)c(-c2c[nH]c3c(NC(=O)[C@@H](C)N4CCN(C)CC4)cccc23)n1` [Example 55, (2R)-N-(3-{2-[(3-ethyl-1-methyl-1H-pyrazol-4-yl)amino]-5-methylpyrimidin-4-yl}-1H-indol-7-yl)-2-(4-methylpiperazin-1-yl)propanamide], in test [1], the IC50 is 116 nM.
The same measure, in the same setting: under `Cc1nn(C)cc1Nc1ncc(F)c(-c2c[nH]c3c(NC(=O)[C@@H](C)N4CCN(C)CC4)cccc23)n1` [Example 56, (2R)-N-(3-{2-[(1,3-dimethyl-1H-pyrazol-4-yl)amino]-5-fluoropyrimidin-4-yl}-1H-indol-7-yl)-2-(4-methylpiperaizn-1-yl)propanamide] stands 126 nM; under `Cc1nn(C)cc1Nc1nccc(-c2c[nH]c3c(NC(=O)[C@@H](C)N4CCN(C)CC4)cccc23)n1` [Example 57, (2R)-N-(3-{2-[(1,3-dimethyl-1H-pyrazol-4-yl)amino]pyrimidin-4-yl}-1H-indol-7-yl)-2-(4-methylpiperaizn-1-yl)propanamide], 155 nM; under `CCn1cc(Nc2ncc(C)c(-c3c[nH]c4c(NC(=O)[C@@H](C)N5CCN(C)CC5)cccc34)n2)c(OC)n1` [Example 58, (2R)-N-(3-{2-[(1-ethyl-3-methoxy-1H-pyrazol-4-yl)amino]-5-methylpyrimidin-4-yl}-1H-indol-7-yl)-2-(4-methylpiperazin-1-yl)propanamide], 106 nM.
For the molecule `CCOc1nn(CC)cc1Nc1ncc(C)c(-c2c[nH]c3c(NC(=O)[C@@H](C)N4CCN(C)CC4)cccc23)n1` [Example 59, (2R)-N-(3-{2-[(3-ethoxy-1-ethyl-1H-pyrazol-4-yl)amino]-5-methylpyrimidin-4-yl}-1H-indol-7-yl)-2-(4-methylpiperazin-1-yl)propanamide], in test [1], the IC50 was 245 nM.
On to `COC[C@H](C(=O)Nc1cccc2c(-c3ccnc(Nc4cn(C)nc4OC)n3)c[nH]c12)N1CCN(C)CC1` [Example 60, (2R)-3-Methoxy-N-(3-{2-[(3-methoxy-1-methyl-1H-pyrazol-4-yl)amino]pyrimidin-4-yl}-1H-indol-7-yl)-2-(4-methylpiperazin-1-yl)propanamide], for which the IC50 in test [1] is 97.3 nM.
As for `COC[C@@H](C(=O)Nc1cccc2c(-c3ccnc(Nc4cn(C)nc4OC)n3)c[nH]c12)N1CCN(C)CC1` [Example 61, (2S)-3-Methoxy-N-(3-{2-[(3-methoxy-1-methyl-1H-pyrazol-4-yl)amino]pyrimidin-4-yl}-1H-indol-7-yl}-2-(4-methylpiperazin-1-yl)propanamide], in test [1], the IC50 was found to be 1270 nM.
As for `CCOc1nn(C)cc1Nc1ncc(C)c(-c2c[nH]c3c(NC(=O)[C@@H](CC)N4CCN(C)CC4)cccc23)n1` [Example 62, (2R)-N-(3-{2-[(3-ethoxy-1-methyl-1H-pyrazol-4-yl)amino]-5-methylpyrimidin-4-yl}-1H-indol-7-yl)-2-(4-methylpiperazin-1-yl)butanamide], in test [1], the IC50 was 104 nM.
Same read-out and setting: under `CCOc1nn(C)cc1Nc1ncc(C)c(-c2c[nH]c3c(NC(=O)[C@H](CC)N4CCN(C)CC4)cccc23)n1` [Example 63, (2S)-N-(3-{2-[(3-ethoxy-1-methyl-1H-pyrazol-4-yl)amino]-5-methypyrimidin-4-yl}-1H-indol-7-yl)-2-(4-methylpiperazin-1-yl)butanamide] stands 433 nM.
Turning to `CCOc1nn(C)cc1Nc1ncc(C)c(-c2c[nH]c3c(NC(=O)[C@@H](COC)N4CCN(C)CC4)cccc23)n1` [Example 64, (2R)-N-(3-{2-[(3-ethoxy-1-methyl-1H-pyrazol-4-yl)amino]-5-methylpyrimidin-4-yl}-1H-indol-7-yl)-3-methoxy-2-(4-methylpiperazin-1-yl)propanamide], the IC50 in test [1] is 112 nM; at JAK3, greater than 30000 nM; at JAK1, less than 5 nM; at JAK2 it was 2040 nM.
For `CCOc1nn(C)cc1Nc1ncc(C)c(-c2c[nH]c3c(NC(=O)[C@H](COC)N4CCN(C)CC4)cccc23)n1` [Example 65, (2S)-N-(3-{2-[(3-ethoxy-1-methyl-1H-pyrazol-4-yl)amino]-5-methylpyrimidin-4-yl}-1H-indol-7-yl)-3-methoxy-2-(4-methylpiperazin-1-yl)propanamide] the same measures were 1030 nM, greater than 30000 nM, 2530 nM and greater than 30000 nM.
